Assay results from patent publication US6608106B2 (Sloan-Kettering Institute for Cancer Research, priority 1997, dated 2003).
Read-outs that look alike come from different tables or passages of the source. Each block holds one molecule with its values, some of them ahead of it.

Assays:
GLUT1 [1] = biological target: T1, GLUT1 (Mus musculus, UniProt P17809); settings: dose-dependent, 30-second time course, mice
T1 sequence (P17809 1-492): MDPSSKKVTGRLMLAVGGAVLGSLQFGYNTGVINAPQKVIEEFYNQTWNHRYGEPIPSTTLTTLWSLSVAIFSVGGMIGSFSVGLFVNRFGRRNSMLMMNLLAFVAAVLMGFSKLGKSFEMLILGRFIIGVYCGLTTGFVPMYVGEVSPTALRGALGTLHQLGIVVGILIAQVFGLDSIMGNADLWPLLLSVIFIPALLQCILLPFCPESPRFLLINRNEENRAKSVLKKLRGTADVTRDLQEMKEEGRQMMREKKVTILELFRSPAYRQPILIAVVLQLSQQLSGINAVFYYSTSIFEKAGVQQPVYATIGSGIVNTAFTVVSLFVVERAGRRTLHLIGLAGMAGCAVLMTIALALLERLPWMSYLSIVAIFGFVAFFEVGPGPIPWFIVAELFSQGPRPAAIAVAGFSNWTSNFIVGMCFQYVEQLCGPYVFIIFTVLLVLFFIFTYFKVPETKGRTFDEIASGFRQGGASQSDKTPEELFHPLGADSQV

[2] = Carotid artery infusion of dehydroascorbic acid: loading of vitamin C into the brain; type: in vivo; settings: 24 mg into carotid artery over forty minutes, rat
Procedure: An experiment was done in which the carotid artery of a subject rat was cannulated with a catheter and 24 mg of dehydroascorbic acid was injected into the artery. The injected dehydroascorbic acid was spiked with a tracer amount of radioactive (^14C-labeled) dehydroascorbic acid. The dehydroascorbic acid was infused over forty minutes and the brain was harvested. The amount of radioactive vitamin C was quantitated in the brain and total amount of injected vitamin C that accumulated in the brain was thus extrapolated. […] It is of note that the total vitamin C concentration in the normal adult rat brain is approximately 150 μg. A log-fold greater Vitamin C than baseline normal concentration of Vitamin C was thus achieved.

[3] = Tracer studies of brain accumulation in focal cerebral ischemia; type: in vivo, C57/6J BL mice; settings: ischemic animals, 10 minutes or two hours of focal ischemia
Procedure: (§1) Dithiothreitol (0.1 mmol/L) was then added separately to both DHA and ascorbate prior to use as a reducing agent. For experiments examining the effect of focal cerebal ischemia on the DHA's ability to: (1) cross the blood-brain barrier and, (2) protect cerebral tissue, we employed an intraluminal murine model of reversible (45 minutes) or permanent (24 h) right middle cerebral artery occlusion. (12) Anesthetized normothermic C57/6J BL mice were treated prior to ischemia via penile injection with either high dose DHA (250 mg/kg), low dose DHA (40 mg/kg), ascorbate (250 mg/kg), or sucrose (a non-metabolized, non-transportable marker of plasma volume). All animals underwent transcranial laser doppler measurement of cortical cerebral blood flow perioperatively. […] (11) In contrast, the experimental cohorts were followed for 24 hours and underwent pre-sacrifice neurological examination, as previously described. 13 Infarct volumes were calculated by digital analysis of serial, 2,3,5-triphenyltetrazolium-stained, sections, with volumes expressed as percentage of the ipsilateral hemisphere.^12 There were 67 animals in the reperfusion cohort (including vehicle, 40 mg/kg DHA, 250 mg/kg DHA, and 250 mg/kg ascorbate cohorts) and 54 animals in the nonreperfused cohort (including vehicle, 250 mg/kg DHA, and 250 mg/kg ascorbate cohorts). Comparisons were made between groups with a two-tailed Student t-test for unpaired variable. All studies were performed in accordance with an institutionally approved animal protocol.

[4] = system: murine stroke (right middle cerebral artery occlusion); experiment: Reperfused stroke: reversible (45 minutes) right middle cerebral artery occlusion; type: in vivo, C57/6J BL mice; settings: for cerebral infarct volume (percentage of the ipsilateral hemisphere): 24 hours
Procedure: as §1

[5] = system: murine stroke (right middle cerebral artery occlusion); experiment: Non-reperfused stroke: permanent (24 h) right middle cerebral artery occlusion; type: in vivo, C57/6J BL mice; settings: 250 mg/kg
Procedure: as §1
Since clinical therapeutic antioxidant strategies might be employed prior to hospitalization and reperfusion, we examined the effect of high-dose DHA on non-reperfused stroke as well. […] This improved perfusion was associated with similar reductions in infarct volume (51±6% vehicle, 46±6% AA, and 26±5% high-DHA, p<0.01 vs. vehicle), and sacrifice neurological deficit scores (3.0±0.3% vehicle, 3.2±0.4% AA, and 1.9±0.2% high-DHA; p<0.005 for DHA vs. either control). As in the setting of reperfusion, DHA reduced mortality by nearly 50% (50% vehicle, 64% AA, and 30% high-DHA.

[6] = in vivo
[7] = mouse, in vivo; for serum radioactivity concentration: 15 seconds
[8] = rat
[9] = previous studies (11); cited from earlier work
HL60 cells = settings: read-out: apparent Km for transport; cited from earlier work
[10] = cited from earlier work
GLUT1 [11] = biological target: T2, GLUT1 (Homo sapiens, UniProt P11166); settings: in vitro data; cited from earlier work
T2 sequence (P11166 1-492): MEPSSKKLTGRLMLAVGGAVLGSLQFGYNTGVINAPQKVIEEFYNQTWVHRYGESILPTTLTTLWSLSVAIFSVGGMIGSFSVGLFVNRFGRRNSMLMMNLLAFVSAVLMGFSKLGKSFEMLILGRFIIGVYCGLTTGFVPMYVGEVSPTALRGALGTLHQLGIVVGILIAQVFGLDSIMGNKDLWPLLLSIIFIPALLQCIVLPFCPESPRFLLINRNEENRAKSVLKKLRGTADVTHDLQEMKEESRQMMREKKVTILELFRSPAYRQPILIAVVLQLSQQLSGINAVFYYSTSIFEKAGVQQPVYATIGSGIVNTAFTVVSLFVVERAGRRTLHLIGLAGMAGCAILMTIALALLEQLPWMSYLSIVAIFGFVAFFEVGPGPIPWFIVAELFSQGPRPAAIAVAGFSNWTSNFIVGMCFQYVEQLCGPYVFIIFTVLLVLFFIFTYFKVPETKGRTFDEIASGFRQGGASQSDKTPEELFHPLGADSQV

[12] = 60 mg daily, human volunteers; cited from earlier work
[13] = low dose 40 mg/kg pre-treatment

SMILES: CC(C)C[C@H](N)C(=O)O [leucine]
- inhibition of uptake of dehydroascorbic acid in the brain (GLUT1 [1]): no effect

SMILES: O=C1O[C@H]([C@@H](O)CO)C(=O)C1=O [dehydroascorbic acid]
- amount of vitamin C accumulated in the brain [2]: 2.6 mg
- vitamin C accumulated in the brain as share of injected dose [2]: approximately 11%
- accumulation, percent of injected dose (TD) per gram of brain tissue [3]: ~4%
- neurological deficit score ([4]; 250 mg/kg pre-treatment): 1.9±0.2
- overall mortality ([4]; 250 mg/kg pre-treatment): 27%
- post-ischemic cerebral perfusion ([4]; 250 mg/kg pre-treatment): 40±4%
- cerebral infarct volume (percentage of the ipsilateral hemisphere) ([4]; 250 mg/kg pre-treatment): 12±4%
- neurological deficit score [4, 13]: 1.6±0.2
- overall mortality [4, 13]: 24%
- post-ischemic cerebral perfusion [4, 13]: 28±2%
- cerebral infarct volume (percentage of the ipsilateral hemisphere) [4, 13]: 22±4%
- infarct volume [5]: 26±5%
- mortality [5]: 30%
- pre-sacrifice regional cerebral cortical perfusion [5]: 30±3%
- reduction of mortality ([5]; vs. controls): ~50%
- radioactivity found in the brain, percent of injected dose (ID) per gram of brain tissue ([6]; Balb/c (mouse), Fischer F344 (rat), mouse and rat, 3 min): Approximately 4%
- brain radioactivity, maximum ([7]; Balb/c, iv): 4.3 % of ID/gram brain tissue
- serum radioactivity concentration ([7]; Balb/c, iv): 8 % ID/gram serum
- brain radioactivity ([7]; Balb/c, iv, 25 min): 3.3%
- calculated BBB permeability-surface area product (PS) [8]: 136±12 μl/min/gm brain tissue
- form of vitamin C accumulating in the brains of DHA-injected animals that is ascorbic acid [9]: > 85%
- Km (HL60 cells): 850 µM
- stability ([10]; aqueous solution): hydrolyses easily
- stability ([10]; low pH conditions): stable

SMILES: OC[C@H]1O[C@@](CO)(O[C@H]2O[C@H](CO)[C@@H](O)[C@H](O)[C@H]2O)[C@@H](O)[C@@H]1O [sucrose, [fructose-1-^3H]-sucrose]
- accumulation, percent of injected dose (TD) per gram of brain tissue [3]: only trace levels
- radioactivity found in the brain, percent of injected dose (ID) per gram of brain tissue [6]: only trace radioactivity
- maximum brain accumulation ([7]; Balb/c, iv): 0.4 % ID/gram brain tissue
- brain radioactivity ([7]; Balb/c, iv, 15 min): < 0.1%

SMILES: O=C1O[C@H]([C@@H](O)CO)C(O)=C1O [ascorbic acid, L-[1-^14C]-ascorbic acid, reference compound]
- accumulation, percent of injected dose (TD) per gram of brain tissue [3]: only trace levels
- neurological deficit score ([4]; 250 mg/kg pre-treatment): 2.7±0.7
- overall mortality ([4]; 250 mg/kg pre-treatment): 50%
- post-ischemic cerebral perfusion ([4]; 250 mg/kg pre-treatment): 13±1%
- cerebral infarct volume (percentage of the ipsilateral hemisphere) ([4]; 250 mg/kg pre-treatment): 58±4%
- infarct volume [5]: 46±6%
- mortality [5]: 64%
- pre-sacrifice regional cerebral cortical perfusion [5]: 15±3%
- radioactivity found in the brain, percent of injected dose (ID) per gram of brain tissue [6]: only trace radioactivity
- maximum brain accumulation ([7]; Balb/c, iv): 0.4 % ID/gram brain tissue
- serum radioactivity concentration ([7]; Balb/c, iv): 27 % ID/gram serum
- brain radioactivity ([7]; Balb/c, iv, 2 hours): 1.1 % ID/gram brain tissue
- transport into the brain [7]: no measurable transport
- steady-state plasma concentration [12]: approximately 24 μM

More lines, main results first:

- inhibition of uptake of dehydroascorbic acid in the brain (GLUT1 [1]): no effect
SMILES: O=C[C@@H](O)[C@H](O)[C@@H](O)[C@@H](O)CO [L-glucose]

- calculated BBB permeability-surface area product (PS) [8]: 44±3.2 μl/min/gm brain tissue
SMILES: O=CC[C@@H](O)[C@H](O)[C@H](O)CO [D-deoxyglucose, 2-Deoxy-D-glucose, reference compound]
- Km (HL60 cells): 2500 µM
- concentration necessary to block the transport of dehydroascorbic acid through GLUT1 (GLUT1 [11]): greater than 50 mM
